The source made the active and inactive calls.

A short description of one assay: cells. It counts as functional.
Assay [1] has as its target Nuclear receptor subfamily 5 group A member 2 (Homo sapiens, UniProt O00482). Format: functional, cell-based.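 Further: HEK293T cells transfected with LRH-1 and a StAR promoter luciferase reporter; potency for inhibitors that lower LRH-1 driven reporter light.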
The target of a further assay is Steroidogenic factor 1 (Homo sapiens, UniProt Q13285). The assay can be described thus: Counterscreen for inverse agonists of the liver receptor homolog-1 (LRH-1; NR5A2): Luminescence-based cell-based high throughput dose response assay to identify inverse agonists of the Steroidogenic Factor 1 Nuclear Receptor (SF1; NR5A1). It counts as functional.
Chain of Steroidogenic factor 1 (Q13285 whole entry): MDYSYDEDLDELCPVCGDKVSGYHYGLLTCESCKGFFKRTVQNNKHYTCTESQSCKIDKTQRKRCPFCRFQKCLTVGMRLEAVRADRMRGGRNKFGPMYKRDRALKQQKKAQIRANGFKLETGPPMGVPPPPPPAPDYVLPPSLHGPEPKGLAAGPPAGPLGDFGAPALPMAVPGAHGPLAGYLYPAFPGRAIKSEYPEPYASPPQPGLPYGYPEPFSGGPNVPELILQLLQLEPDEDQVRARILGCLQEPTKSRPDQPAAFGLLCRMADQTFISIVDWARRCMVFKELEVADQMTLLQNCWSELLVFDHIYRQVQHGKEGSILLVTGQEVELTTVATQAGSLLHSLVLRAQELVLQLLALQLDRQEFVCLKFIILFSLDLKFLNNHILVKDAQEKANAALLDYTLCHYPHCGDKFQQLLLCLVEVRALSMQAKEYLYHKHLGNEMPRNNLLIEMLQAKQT
A short description of assay [2]: nonselective StAR promoter luciferase inhibitors – cell-based, luminescence, luciferase reporter, counter-screen for LRH-1 inverse agonist project, dose response (AID 651969). Format: functional. (Reporter assays use an easily measured gene product as a stand-in for the process of interest.)
Assay [3] has as its target T1, Corticotropin-releasing factor receptor 2/Corticotropin-releasing factor-binding protein (Homo sapiens, UniProt P24387+Q13324).
T1 sequence (Q13324 whole entry): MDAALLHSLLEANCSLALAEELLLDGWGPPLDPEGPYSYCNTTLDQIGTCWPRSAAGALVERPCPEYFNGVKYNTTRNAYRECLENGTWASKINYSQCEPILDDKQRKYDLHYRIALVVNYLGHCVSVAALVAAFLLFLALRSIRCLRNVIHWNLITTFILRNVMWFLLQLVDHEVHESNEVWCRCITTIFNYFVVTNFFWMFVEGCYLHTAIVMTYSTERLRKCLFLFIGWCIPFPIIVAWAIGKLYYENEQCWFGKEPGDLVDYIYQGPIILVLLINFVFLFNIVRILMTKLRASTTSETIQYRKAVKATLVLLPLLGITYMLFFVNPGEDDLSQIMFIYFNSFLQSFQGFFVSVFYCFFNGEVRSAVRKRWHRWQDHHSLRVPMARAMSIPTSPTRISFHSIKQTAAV
T1 sequence (P24387 whole entry): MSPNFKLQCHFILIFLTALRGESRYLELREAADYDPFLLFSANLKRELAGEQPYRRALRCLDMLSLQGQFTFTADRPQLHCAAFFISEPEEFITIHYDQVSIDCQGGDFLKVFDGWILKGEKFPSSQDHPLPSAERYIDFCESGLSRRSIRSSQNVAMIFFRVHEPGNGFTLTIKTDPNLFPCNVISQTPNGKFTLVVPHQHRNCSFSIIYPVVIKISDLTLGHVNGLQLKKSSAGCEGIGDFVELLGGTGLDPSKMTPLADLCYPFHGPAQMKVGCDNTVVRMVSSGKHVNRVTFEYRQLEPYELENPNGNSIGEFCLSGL
In words: Dose Response confirmation of uHTS hits for small molecule antagonists of the CRF-binding protein and CRF-R2 receptor complex. It counts as functional. As to conditions: read-out: IC50_Mean.

Assay [4] addresses T1, Corticotropin-releasing factor receptor 2/Corticotropin-releasing factor-binding protein. In words: activators of CRF receptor 2 with binding protein – uHTS hits, confirmation (AID 602473). Format: functional. As to conditions: read-out: EC50_Mean.
A further assay relates to HeLa. In words: viability loss in HeLa cells – cell-based, ATP luminescence, cherry-pick samples, cytotoxicity control, dose response (AID 687004). It counts as functional. As to conditions: Homo sapiens.
The nature of assay [5]: Counterscreen for inhibitors of Trypanosoma brucei methionyl tRNA synthetase (MetRS): Luminescence-based cell-based high throughput dose response assay to identify compounds that are cytotoxic to Jurkat human T lymphocyte cells. It counts as functional. A general note: The purpose of a counterscreen is to sort out artefacts and off-target activity.
Assay [6] deals with T2, Methionyl-tRNA synthetase, putative (Trypanosoma brucei brucei, UniProt Q38C91).
T2 sequence (Q38C91 whole entry): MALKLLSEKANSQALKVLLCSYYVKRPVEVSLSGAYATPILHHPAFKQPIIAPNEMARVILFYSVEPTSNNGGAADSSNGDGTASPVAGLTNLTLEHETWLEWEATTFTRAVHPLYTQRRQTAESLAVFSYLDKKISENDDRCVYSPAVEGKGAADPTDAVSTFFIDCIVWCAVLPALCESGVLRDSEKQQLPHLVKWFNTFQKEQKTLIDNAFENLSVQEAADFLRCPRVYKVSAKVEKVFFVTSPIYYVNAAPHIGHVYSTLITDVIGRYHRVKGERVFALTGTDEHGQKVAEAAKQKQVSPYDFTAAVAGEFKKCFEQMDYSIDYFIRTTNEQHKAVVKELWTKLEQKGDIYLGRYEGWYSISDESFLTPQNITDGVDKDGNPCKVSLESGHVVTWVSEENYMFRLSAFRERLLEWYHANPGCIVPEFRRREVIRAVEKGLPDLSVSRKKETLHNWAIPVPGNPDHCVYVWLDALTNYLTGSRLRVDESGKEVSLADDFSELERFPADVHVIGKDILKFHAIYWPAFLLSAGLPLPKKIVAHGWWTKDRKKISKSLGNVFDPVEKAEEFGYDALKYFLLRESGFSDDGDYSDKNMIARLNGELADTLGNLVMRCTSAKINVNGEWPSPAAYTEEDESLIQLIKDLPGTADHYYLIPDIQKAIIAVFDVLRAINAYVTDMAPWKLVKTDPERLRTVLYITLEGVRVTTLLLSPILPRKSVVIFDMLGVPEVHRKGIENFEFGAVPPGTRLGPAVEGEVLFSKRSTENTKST
Format: functional, Trypanosoma brucei brucei strain 927/4 GUTat10.1.

For assay [7], the target named is Fructose-bisphosphate aldolase (Mycobacterium tuberculosis, UniProt P9WQA3). In words: Fluorescence-based biochemical high throughput dose response assay for inhibitors of the fructose-bisphosphate aldolase (FBA) of M. tuberculosis. It counts as functional.
Chain of Fructose-bisphosphate aldolase (P9WQA3 whole entry): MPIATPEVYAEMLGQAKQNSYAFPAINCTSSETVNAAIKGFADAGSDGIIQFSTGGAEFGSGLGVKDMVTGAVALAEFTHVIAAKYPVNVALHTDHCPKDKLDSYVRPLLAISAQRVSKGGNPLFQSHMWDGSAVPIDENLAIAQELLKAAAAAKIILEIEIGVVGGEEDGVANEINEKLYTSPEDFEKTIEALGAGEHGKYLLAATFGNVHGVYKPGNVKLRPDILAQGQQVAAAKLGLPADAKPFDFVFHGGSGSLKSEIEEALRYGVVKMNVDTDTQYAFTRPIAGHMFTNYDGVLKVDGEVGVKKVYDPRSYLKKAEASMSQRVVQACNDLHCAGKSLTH
Another assay concerns the target Albumin (Bos taurus, UniProt P02769). The assay can be described thus: Counterscreen for inhibitors of T-cell receptor (TCR)-CD3 interaction: Fluorescence-based biochemical high throughput dose response assay to identify inhibitors of T-cell receptor (TCR)-CD3 interaction using a TAMRA-labeled BSA probe. Format: functional.
A short description of assay [8]: viability loss in HeLa cells – cytotoxicity control for MgcRacGAP inhibitor project, dose response (AID 624300). It counts as functional.
Assay [9] can be described thus: blockers of HIV-1 envelope-mediated cell-cell fusion – cherry-pick, dose response (AID 652057). It counts as functional, cell-based.
Assay [10] can be described thus: viability loss in CEM21 cells – cell-based, CellTiter-Glo luminescence, cherry-picked, cytotoxicity control for viral fusion inhibitor project, dose response (AID 652042).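 Further: potency for signal decrease meaning cytotoxicity.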 Format: functional. Background: In ATP-based viability assays light output follows the ATP content of the culture.
The nature of assay [11]: blockers of HIV-1 ZM109 envelope-driven cell-cell fusion – HeLa effector, CEM target cells, luciferase, cherry-pick, dose response (AID 652058).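 Further: luciferase signal from HIV-1 Env mediated cell-cell fusion of effector and target cells.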 It counts as functional, cell-based.
Assay [12] in a line: off-target signal loss in HeLa-CEM21 co-culture – HeLa F-luc CTL cells, cherry-picked, counter-screen for HIV-1 Env fusion inhibitor project, dose response (AID 652040).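 Further: potency for signal decrease marking cytotoxic or nonspecific inhibition.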 Format: functional, cell-based.
Assay [13] can be described thus: HIV-1 AD8 envelope cell-cell fusion blockers – cherry-pick, dose response (AID 652062).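 Further: luciferase signal from cell-cell fusion driven by HIV-1 clade B AD8 Env; potency is for inhibitors of fusion seen as a drop in luminescence.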 It counts as functional, cell-based.
The target in assay [14] is T3, Sentrin-specific protease 1 (Homo sapiens, UniProt Q9P0U3).
T3 sequence (Q9P0U3 whole entry): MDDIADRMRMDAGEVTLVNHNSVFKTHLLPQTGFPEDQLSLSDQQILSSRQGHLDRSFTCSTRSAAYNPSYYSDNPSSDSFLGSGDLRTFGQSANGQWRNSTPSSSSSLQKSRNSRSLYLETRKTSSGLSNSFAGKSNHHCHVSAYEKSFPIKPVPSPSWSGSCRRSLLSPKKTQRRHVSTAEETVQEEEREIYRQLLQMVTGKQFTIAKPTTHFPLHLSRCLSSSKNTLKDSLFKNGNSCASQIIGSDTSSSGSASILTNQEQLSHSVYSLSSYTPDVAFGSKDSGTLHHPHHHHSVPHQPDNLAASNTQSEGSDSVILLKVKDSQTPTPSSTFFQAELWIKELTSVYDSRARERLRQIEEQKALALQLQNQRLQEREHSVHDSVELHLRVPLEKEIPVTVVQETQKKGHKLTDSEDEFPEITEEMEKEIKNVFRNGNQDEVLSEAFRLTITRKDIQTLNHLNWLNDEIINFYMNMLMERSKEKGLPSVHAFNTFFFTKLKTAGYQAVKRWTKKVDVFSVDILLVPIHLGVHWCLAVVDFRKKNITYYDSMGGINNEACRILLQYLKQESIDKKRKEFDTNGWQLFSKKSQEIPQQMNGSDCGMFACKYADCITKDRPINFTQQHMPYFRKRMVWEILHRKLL
The assay can be described thus: SENP1 catalytic domain blockers, concentration series – biochemical, kinetic FRET, dose response (AID 651697). It counts as functional. Particulars: read-out: IC50_Mean.

Assay [15] addresses T3, Sentrin-specific protease 1. In words: Dose response confirmation of small molecule inhibitors of the catalytic domain of the SUMO protease, SENP1 in a FRET assay. Format: functional. As to conditions: read-out: IC50_Mean.
For assay [16], the target named is DNA damage-inducible transcript 3 protein (Mus musculus, UniProt P35639). It counts as functional, Cricetulus griseus.
Chain of DNA damage-inducible transcript 3 protein (P35639 whole entry): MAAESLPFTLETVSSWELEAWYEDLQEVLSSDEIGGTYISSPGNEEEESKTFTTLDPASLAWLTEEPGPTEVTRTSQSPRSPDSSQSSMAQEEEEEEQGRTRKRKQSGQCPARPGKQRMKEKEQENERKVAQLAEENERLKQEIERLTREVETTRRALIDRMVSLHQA
In assay [17] the target is T4, Latent membrane protein 1 (Human herpesvirus 4 (strain B95-8), UniProt P03230).
T4 sequence (P03230 whole entry): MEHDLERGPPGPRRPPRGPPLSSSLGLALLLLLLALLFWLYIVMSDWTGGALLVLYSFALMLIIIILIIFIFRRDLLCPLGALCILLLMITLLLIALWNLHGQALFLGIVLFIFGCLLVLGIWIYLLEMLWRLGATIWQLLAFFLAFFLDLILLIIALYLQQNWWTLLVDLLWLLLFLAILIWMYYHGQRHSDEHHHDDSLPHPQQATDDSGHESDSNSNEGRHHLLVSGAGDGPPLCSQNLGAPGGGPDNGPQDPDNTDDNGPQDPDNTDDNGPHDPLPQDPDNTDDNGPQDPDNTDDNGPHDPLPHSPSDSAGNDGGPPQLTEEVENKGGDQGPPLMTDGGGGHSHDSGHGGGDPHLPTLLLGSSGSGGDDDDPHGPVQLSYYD
In words: LMP1 TES1 pathway selectivity over dsRED control – imaging, HEK293T, dual-color eGFP/dsRED, cherry-picks, selectivity assay for LMP1 NF-kB inhibitor project, dose response (AID 588398). Format: functional, cell-based.

The target of assay [18] is T5, Probable nicotinate-nucleotide adenylyltransferase (Staphylococcus aureus (strain N315), UniProt P65502). It counts as functional, Staphylococcus aureus subsp. aureus N315.
T5 sequence (P65502 whole entry): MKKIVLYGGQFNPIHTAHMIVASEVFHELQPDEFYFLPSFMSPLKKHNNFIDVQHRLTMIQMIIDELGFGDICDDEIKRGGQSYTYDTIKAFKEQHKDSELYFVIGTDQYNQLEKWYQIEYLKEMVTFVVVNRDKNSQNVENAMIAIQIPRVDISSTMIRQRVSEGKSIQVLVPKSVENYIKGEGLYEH
The target in assay [19] is T5, Probable nicotinate-nucleotide adenylyltransferase. Format: functional, Staphylococcus aureus subsp. aureus N315. As to conditions: read-out: IC50_Mean.
Assay [20] is described as follows: potency of ADAM10 substrate cleavage blockers – biochemical, QFRET, dose response (AID 743254).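 Further: ADAM10 enzyme with the DM2 quenched FRET peptide as substrate; EDANS fluorescence gain as the protease cuts the substrate; inhibitor potency against ADAM10 proteolytic activity.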
Assay [21] deals with T6, Disintegrin and metalloproteinase domain-containing protein 17 (Homo sapiens, UniProt P78536). In words: exosite inhibitors of ADAM17, dose response, biochemical (AID 743260).
T6 sequence (P78536 whole entry, the tested form may be a part): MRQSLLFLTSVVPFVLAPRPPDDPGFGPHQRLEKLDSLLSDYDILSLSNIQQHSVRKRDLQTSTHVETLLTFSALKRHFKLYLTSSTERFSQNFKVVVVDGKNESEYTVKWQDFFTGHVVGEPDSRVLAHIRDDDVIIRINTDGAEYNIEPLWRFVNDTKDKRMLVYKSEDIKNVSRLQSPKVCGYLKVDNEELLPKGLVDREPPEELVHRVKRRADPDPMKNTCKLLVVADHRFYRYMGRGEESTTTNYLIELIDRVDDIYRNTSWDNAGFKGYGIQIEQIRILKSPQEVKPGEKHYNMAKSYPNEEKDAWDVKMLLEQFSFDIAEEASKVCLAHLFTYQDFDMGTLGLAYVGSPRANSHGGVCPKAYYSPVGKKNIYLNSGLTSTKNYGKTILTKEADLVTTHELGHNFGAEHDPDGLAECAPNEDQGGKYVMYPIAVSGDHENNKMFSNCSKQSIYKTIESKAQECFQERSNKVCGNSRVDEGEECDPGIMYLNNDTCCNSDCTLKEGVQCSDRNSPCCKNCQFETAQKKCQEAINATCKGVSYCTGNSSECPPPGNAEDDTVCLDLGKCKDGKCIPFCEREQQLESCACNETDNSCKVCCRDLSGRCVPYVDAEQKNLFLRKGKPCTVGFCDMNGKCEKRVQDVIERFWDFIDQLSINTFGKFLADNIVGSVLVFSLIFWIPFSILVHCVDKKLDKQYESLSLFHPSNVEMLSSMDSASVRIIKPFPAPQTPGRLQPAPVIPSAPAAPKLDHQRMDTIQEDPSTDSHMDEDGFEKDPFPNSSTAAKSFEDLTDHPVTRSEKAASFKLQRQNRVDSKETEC
Assay [22] in a line: inhibition of ADAM10 peptide cleavage – biochemical, FRET peptide substrate, recombinant human ADAM10, selectivity assay for ADAM17 exosite inhibitor project, dose response (AID 743259).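 Further: ADAM10 enzyme cleaving a FRET peptide substrate.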
Assay [23] addresses T6, Disintegrin and metalloproteinase domain-containing protein 17. In words: inhibition of ADAM17 substrate cleavage – biochemical, quenched FRET substrate, counter-screen for ADAM10 exosite inhibitor project, dose response (AID 743253).

Chain of Nuclear receptor subfamily 5 group A member 2 (O00482 whole entry): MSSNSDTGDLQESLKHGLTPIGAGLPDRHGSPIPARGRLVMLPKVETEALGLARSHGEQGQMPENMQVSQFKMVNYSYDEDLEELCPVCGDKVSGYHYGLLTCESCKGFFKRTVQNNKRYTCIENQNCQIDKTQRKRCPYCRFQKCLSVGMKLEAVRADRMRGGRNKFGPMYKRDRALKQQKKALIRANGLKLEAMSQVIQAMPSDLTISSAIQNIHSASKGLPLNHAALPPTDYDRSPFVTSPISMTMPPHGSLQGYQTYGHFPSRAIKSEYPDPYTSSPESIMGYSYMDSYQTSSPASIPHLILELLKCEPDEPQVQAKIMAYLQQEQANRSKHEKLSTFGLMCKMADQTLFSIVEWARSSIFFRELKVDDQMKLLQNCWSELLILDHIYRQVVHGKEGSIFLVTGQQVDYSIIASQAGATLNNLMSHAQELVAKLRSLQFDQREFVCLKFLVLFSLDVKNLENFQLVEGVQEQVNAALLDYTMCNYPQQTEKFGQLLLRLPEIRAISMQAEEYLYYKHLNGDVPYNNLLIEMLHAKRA
Chain of Albumin (P02769 whole entry): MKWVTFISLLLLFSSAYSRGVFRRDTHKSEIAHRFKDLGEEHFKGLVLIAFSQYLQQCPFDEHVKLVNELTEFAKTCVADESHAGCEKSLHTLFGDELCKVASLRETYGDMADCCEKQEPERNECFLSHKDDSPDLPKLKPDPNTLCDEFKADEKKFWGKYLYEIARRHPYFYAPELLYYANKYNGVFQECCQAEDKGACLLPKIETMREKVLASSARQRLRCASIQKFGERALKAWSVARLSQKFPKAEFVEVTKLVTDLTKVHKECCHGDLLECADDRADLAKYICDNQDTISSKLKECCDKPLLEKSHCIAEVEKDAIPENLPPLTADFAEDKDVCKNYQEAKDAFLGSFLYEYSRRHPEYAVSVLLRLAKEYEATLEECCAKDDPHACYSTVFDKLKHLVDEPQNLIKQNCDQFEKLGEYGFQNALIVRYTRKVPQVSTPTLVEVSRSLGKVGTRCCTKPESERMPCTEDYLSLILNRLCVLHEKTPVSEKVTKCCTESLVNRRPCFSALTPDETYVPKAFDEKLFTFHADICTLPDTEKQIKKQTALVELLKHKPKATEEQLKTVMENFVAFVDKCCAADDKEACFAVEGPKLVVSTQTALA

As for `Cc1ccc(NC(=O)COC(=O)C(NS(=O)(=O)c2ccc(Cl)cc2)C(C)O)cc1C` (stereo not given), the IC50 in the assay “cells” was 6.57 µM (active); in assay [1], 12 µM (inactive); at Steroidogenic factor 1 it was 2.17 µM (active); in [2], 35.9 µM (inactive).

Turning to `O=C(NCC1CCCO1)c1ccc(NC(=O)c2cccc([N+](=O)[O-])c2)cc1` (stereo not given), the IC50 is 3.99 µM (active) in assay [1], 1.32 µM (active) at Steroidogenic factor 1 and 35.9 µM (inactive) in assay [2].

As for `COC(=O)C1=C(C)N(Cc2ccccc2)C(=S)N[C@H]1c1cccc(F)c1`, in [3], the IC50 is > 47.1 µM (inactive). Also, the EC50 in [4] is > 53 µM (inactive). Also, the AC50 in the assay with HeLa was > 52 µM (inactive).

As for `O=C(CSc1nc2cc(Cl)ccc2[nH]1)c1c[nH]c2ccccc12`, the IC50 in assay [5] is 83.3 µM (inactive).

Turning to `O=C(CSc1nc2ccc(Cl)cc2[nH]1)c1c[nH]c2ccccc12`, the IC50 in [6] is 39.5 µM (inactive).

Turning to `CCCC(C(=O)Nc1ccc2c(C)cc(=O)oc2c1)c1ccccc1` (stereo not given), in [7], the IC50 was 1.23 µM (active).

Regarding `O=C(NNC(=S)NC(=O)c1cccc([N+](=O)[O-])c1)c1ccc(O)cc1`, the IC50 at Albumin was > 94 µM (inactive).

For the compound `CCc1ccc(CNCCc2c[nH]c3ccccc23)cc1`, the CC50 in assay [8] was 100 µM (active). Besides, the AC50 in assay [9] was 4.4 µM (active); in assay [10], 31.7 µM (active); in [11] it was 4.01 µM (active); in [12], 6.36 µM (active); in assay [13], 12.2 µM (active).

With `CC1=C(C(N)=O)S(=O)(=O)c2ccccc21`, the IC50 is 19.6 µM (active) in assay [14] and 23 µM (inactive) in assay [15].

On to `COc1ccccc1NC(=O)c1c(Nc2ccccc2C)sc(C(=O)Nc2cccc(Cl)c2)c1N`, for which the “Absolute IC50 (CHOP)” value in [16] worked out at 10 µM. In addition, in [17], the AC50 was 21.3 µM (active). Moreover, the IC50 is 26 µM (active) in assay [18]; 80 µM (inactive) in assay [19]; > 7.73 µM (active) in assay [20]; > 69.5 µM (inactive) in [21]; > 69.5 µM (inactive) in assay [22]; > 69.5 µM (inactive) in assay [23].

For the compound `N#CC1=C(C2CC2)CC(c2ccccc2)C(C#N)=C1N` (stereo not given), in [7], the IC50 was > 10 µM (inactive).

`COc1cc(C(O)c2nc(-c3ccc4ccccc4c3)cs2)ccc1F` (stereo not given): the IC50 in assay [20] was 10.4 µM (inactive); in assay [23] it was > 69.5 µM (inactive).

Regarding `COc1ccc(/C=N/N2C(=O)CSC2=S)cc1Br`, the IC50 was 19.3 µM (active) in assay [14] and 9.69 µM (active) in assay [15].

The term AC50 denotes the midpoint of the concentration-response curve, whichever way the signal moves. Broadly, the CC50 is the concentration at which the toxic effect on the cells reaches its halfway point.

Values taken from ChEMBL document CHEMBL1201862, “PubChem BioAssay data set” (2004).
